The test system of test [1] is T84 cells.
The test system of test [2] is T84 cells. The class given is cell-based.
In test [3] the test system is T84 cells. As to the kind of experiment: 3,000 Da FITC-dextran flux across T84 cells. The class given is cell-based. The conditions noted are these: 200 nM active linaclotide, 200 nM guanylin, 100 nM lubiprostone, 3 days, then dextran 24 h, n = 3.
Test [4] has as its system T84 cells. The test is described as follows: plasma membrane potential of T84 cells (DiBAC4(3)). The test is classed as cell-based. The conditions noted are these: different concentrations, p wrt 1 nM drug, n = 5.
On the set-up of test [5]: method as in PMID 16603730. The following applies: ref [19],[20]; cited from earlier work.
For test [6], the system named is occludin. The test is described as follows: Western analysis of occludin in sucrose density gradient membrane fractions. Also noted: species or system Yorkshire crossbred pigs. The following applies: ischemic pig jejunum, n = 3 experiments.
In test [7] the test system is T84 cells. As to the kind of experiment: 70,000 Da rhodamine-dextran flux across T84 cells. The test is classed as cell-based. The following applies: 200 nM active linaclotide, 200 nM guanylin, 100 nM lubiprostone, 3 days, then dextran 24 h, n = 3.
Test [8] has as its system porcine intestine. Also noted: method as in PMID 17053162, PMID 18976652, PMID 18932279. The following applies: porcine intestine models; ref [22]-[24]; cited from earlier work.
Test [9] has as its system T84 cells. The class given is cell-based. This is another data set of the same source.
Test [10] relates to patients with IBS-C. The conditions noted are these: ref [21]; cited from earlier work.
In test [11] the test system is ClC-2 Cl- channels. Also noted: method as in PMID 15213059, PMID 18511742. The following applies: apical membrane of epithelial cells; ref [17],[18]; cited from earlier work.
Test [12] concerns pig jejunum. As to the kind of experiment: short-circuit current (Cl− secretion) of pig jejunal mucosa in Ussing chambers. The arrangement: species or system Yorkshire crossbred pigs. The conditions noted are these: 1 μM, n = 4.
In test [13] the test system is pig jejunum. As to the kind of experiment: mucosal-to-serosal 3H-mannitol flux in pig jejunal mucosa. The following applies: n = 3. The arrangement: species or system Yorkshire crossbred pigs.
Test [14] relates to T84 cells. The test is described as follows: FITC-LPS flux across T84 cells. The class given is cell-based. The following applies: IFN-γ 100 ng/ml.
Test [15] deals with patients with IBS-C and CIC. The following applies: human, in vivo; cited from earlier work.
Test [16] concerns T84 cells. The test is described as follows: mitochondrial membrane potential of T84 cells (JC-1). The class given is cell-based.
Test [17] concerns pig jejunum. The test is described as follows: TER of pig jejunal mucosa in Ussing chambers. Also noted: species or system Yorkshire crossbred pigs.
Test [18] relates to K+ channels. The conditions noted are these: cited from earlier work.
Test [19] has as its system guanylate cyclase-C (GC-C). The following applies: cited from earlier work.
Test [20] has as its system rodent animal models. The following applies: in vivo; cited from earlier work.

Where no end group is shown, it is not given here.

Consider `Nc1nc2c(nc(Br)n2[C@@H]2O[C@@H]3COP(=O)(O)O[C@H]3[C@H]2O)c(=O)[nH]1` [8BrcGMP, 8-bromo cGMP], for which, in test [1], the “effect on T84 TER, no stressor” value is “reduced T84 epithelial cell TER significantly” and the “effects against IFN-γ” value is recorded as “effects similar to active linaclotide”.
`CCCCC[C@H](O)/C=C/[C@H]1[C@H](O)CC(=O)[C@@H]1CCCCCCC(=O)O` [PGE1, Prostaglandin E1]: the “effect on [Ca2+]i” value in test [2] was “significantly increased”.
As for `CCCCC(F)(F)[C@@]1(O)CC[C@H]2[C@@H](CC(=O)[C@@H]2CCCCCCC(=O)O)O1` [lubiprostone], in test [3], the “effect on mucosal to serosal 3,000 Da FITC-dextran flux” value is given as “decreases of these fluxes”. The “effect on plasma membrane potential” value in test [4] is recorded as “significantly hyperpolarized”. In addition, in [5], the “intestinal secretion and bowel movements” value is “increasing intestinal salt and water secretion, promoting bowel movements”. Besides, the “effect on occludin after ischemia” value in test [6] is given as “major return of occludin to detergent-insoluble fractions”. In addition, the “effect on mucosal to serosal 70,000 Da rhodamine-dextran flux” value in [7] is “decreases of these fluxes”. The “barrier repair after ischemia” value in [8] is reported as “promotes repair of barrier properties which are disrupted by ischemia”. The “IFN-γ-counteracting effect on occludin/actin ratio” value in test [9] was around 43.8%. For the same molecule, the “effect on visceral pain thresholds” value in test [10] is on record as “without influencing visceral pain thresholds”. The ClC-2 activation entry in test [11] is recorded as “activates ClC-2 Cl^- channels”. In addition, in test [12], the “effect on Isc, control intestine” value is “significant and similar increases in Isc”. Moreover, the “effect on 3H-mannitol flux, control intestine” value in test [13] (control pig jejunum, 60 min flux period) is recorded as “neither compound had any effect”. Moreover, in [13] (ischemic pig jejunum (45 min ischemia)), the “effect on 3H-mannitol flux after ischemia” value is reported as “decrease in ^3H-mannitol fluxes”. In test [1], the “effect on T84 TER, no stressor” value is on record as “slight increase in TER”. Further, in test [1] (T84 cells, no stressor, barrier function and mitochondrial membrane potential parameters together), the “effect of compound alone on measured T84 parameters” value is given as “no negative effects on the measured parameters”. Besides, the “IFN-γ-counteracting effect on TER” value in test [1] (T84 cells, IFN-γ 100 ng/ml, 200 nM active linaclotide or 100 nM lubiprostone, n = 3, Δlin vs Δlubi p < 0.0005) is given as “ca. 27.3%”. In [1] (T84 cells, TNF-α 50 ng/ml, 200 nM active linaclotide or 100 nM lubiprostone), the “effect on TNF-α-induced TER change” value is reported as “partially protected/repaired barrier function”. The “IFN-γ-counteracting effect on FITC-LPS flux” value in [14] (200 nM active linaclotide or 100 nM lubiprostone, 3 days, then LPS 24 h, n = 3) is on record as around 89%. For the same molecule, in test [15], the “clinical effect on abdominal discomfort and pain” value is “ameliorates abdominal discomfort and pain”; the “clinical efficacy of lubiprostone (symptoms)” value is “significantly improving symptoms associated with CIC and IBS-C”. The “effect on mitochondrial membrane potential, no stressor” value in test [16] (200 nM active linaclotide, 100 nM lubiprostone, 3 days) is on record as “no effect on the mitochondrial membrane potential”. In test [16] (IFN-γ 100 ng/ml, 200 nM active linaclotide or 100 nM lubiprostone, 3 days, n = 8), the “IFN-γ-counteracting effect on mitochondrial membrane potential” value was around 77.8%. In addition, in [17] (control pig jejunum, 1000 nM (1 μM), control ΔTER 2.1±1.8, n = 5, p < 0.01, mean ± S.E.), the “ΔTER, control intestine” value is recorded as 26.3 ± 6.2 % mean basal. The “effect on TER after ischemia” value in test [17] (ischemic pig jejunum (45 min ischemia), n = 5) is reported as “large, significant increase in TER”.
Take `CCC(=O)C(CC(C)N(C)C)(c1ccccc1)c1ccccc1` (stereo not shown) [methadone]: in test [1], the “effect of methadone on linaclotide's effect on TER after TNF-α” value is on record as “no effect” and the “effect of methadone on lubiprostone's protection/repair of TER after TNF-α” value is reported as “inhibited completely”.
“guanylin: well established GC-C activator, Sigma-Aldrich (PGTCEICAYAACTGC; ends and bridges not checked; cysteine pairing not given here; UniProt Q02747 101-115, looked up)”: the “effect on mucosal to serosal 3,000 Da FITC-dextran flux” value in test [3] is listed as “increased mucosal to serosal fluxes”. In test [18], the “K+ channel activation” value is “activate K^+ channels”. The “effect on mucosal to serosal 70,000 Da rhodamine-dextran flux” value in [7] is given as “increased mucosal to serosal fluxes”. For the same molecule, in test [1], the “effect on T84 TER, no stressor” value is “reduced T84 epithelial cell TER significantly” and the “effects against IFN-γ” value was “effects similar to active linaclotide”. Besides, the GC-C activation entry in [19] is “activates guanylate cyclase-C (GC-C) leading to increased [cGMP]i”.
On to linaclotide, for which the “intestinal fluid secretion, transit and pain” value in test [20] is “stimulated intestinal fluid secretion and transit time and reduced pain”. For the same molecule, in test [19], the GC-C activation result was “activates guanylate cyclase-C (GC-C) leading to increased [cGMP]i”. For the same molecule, the “clinical efficacy of linaclotide” value in test [15] was “improve bowel symptoms, transit time and abdominal discomfort or pain”.
Take “uroguanylin: activates guanylate cyclase-C (NDDCELCVNVACTGCL; ends and bridges not checked; cysteine pairing not given here; UniProt Q16661 97-112, looked up)”: the “K+ channel activation” value in test [18] is “activate K^+ channels”. For the same molecule, in [19], the GC-C activation entry is “activates guanylate cyclase-C (GC-C) leading to increased [cGMP]i”.

B1: Interferon-γ (protein, UniProt P01579 24-161, looked up)
Interferon gamma: QDPYVKEAENLKKYFNAGHSDVADNGTLFLGILKNWKEESDRKIMQSQIVSFYFKLFKNFKDDQSIQKSVETIKEDMNVKFFNSNKKKRDDFEKLTNYSVTDLNVQRKAIHELIQVMAELSPAAKTGKRKRSQMLFRG
B1: the “stressor effect on occludin/actin ratio” value in test [9] (T84 cells, IFN-γ 100 ng/ml, p < 0.0005) is listed as “decreased the occludin/actin ratio”. Besides, the “stressor effect on TER” value in test [1] is listed as “significantly reduced TER”. Also, the “stressor effect on mucosal to serosal FITC-LPS flux” value in test [14] (p < 0.0005) is on record as “increased mucosal to serosal FITC-LPS flux”. Moreover, the “stressor effect on mitochondrial membrane potential” value in test [16] (IFN-γ 100 ng/ml, p < 0.0005) was “decreased the mitochondrial membrane potential”.

(Values after paper PMC3403872, “Contrasting effects of linaclotide and lubiprostone on restitution of epithelial cell barrier properties and cellular homeostasis after exposure to cell stressors” (BMC Pharmacology, 2012).)
